# Test results taken from the supplement of paper PMC5908809.
# What was measured:
# [1] = tested on: normal NK cells expanded with K562-aAPC; assay: percent inhibition of viability; higher = more inhibition; conditions: 72 h, IL-2 2.5 ng/mL
# Protocol: (§1)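 Drug sensitivity and resistance testing on K562-aAPC-expanded normal NK cells: 5 concentrations (10-fold steps over a 10,000-fold range), 72 h at 37 °C, viability by CellTiter-Glo normalised to DMSO and benzethonium chloride controls; DSS from the fitted curve.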
# DERL-7 (IL-2 2.5 ng/mL) [2] = assay: as above; conditions: 72 h
# IMC-1 (IL-2 20 ng/mL) [3] = assay: as above; conditions: 72 h
# KAI3 (IL-2 2.5 ng/mL) [4] = assay: as above; conditions: 72 h
# KHYG-1 (IL-2 2.5 ng/mL) [5] = assay: as above; conditions: 72 h
# NK-92 (IL-2 2.5 ng/mL) [6] = assay: as above; conditions: 72 h
# NK-YS (IL-2 2.5 ng/mL) [7] = assay: as above; conditions: 72 h
# NKL (IL-2 2.5 ng/mL) [8] = assay: as above; conditions: 72 h
# SNK-6 (IL-2 2.5 ng/mL) [9] = assay: as above; conditions: 72 h
# YT (IL-2 2.5 ng/mL) [10] = assay: as above; conditions: 72 h
# [11] = tested on: normal primary NK cells, pool 1 (3 donors) (IL-2 2.5 ng/mL); assay: as above; conditions: 72 h
# [12] = tested on: normal primary NK cells, pool 1 (3 donors), resting (IL-2 0 ng/mL); assay: as above; conditions: 72 h
# [13] = tested on: normal primary NK cells, pool 2 (3 donors) (IL-2 2.5 ng/mL); assay: as above; conditions: 72 h
# [14] = tested on: normal primary NK cells, pool 3 (3 donors) (IL-2 2.5 ng/mL); assay: as above; conditions: 72 h
# [15] = tested on: normal NK cells expanded with K562-aAPC; assay: drug sensitivity score (DSS) (DSS units); higher = more sensitive; extreme values may be limits of the assay; conditions: 72 h; IL-2 2.5 ng/mL
# Protocol: as §1
# DERL-7 (IL-2 2.5 ng/mL) [16] = assay: as above; conditions: 72 h
# IMC-1 (IL-2 20 ng/mL) [17] = assay: as above; conditions: 72 h
# KAI3 (IL-2 2.5 ng/mL) [18] = assay: as above; conditions: 72 h
# KHYG-1 (IL-2 2.5 ng/mL) [19] = assay: as above; conditions: 72 h
# NK-92 (IL-2 2.5 ng/mL) [20] = assay: as above; conditions: 72 h
# NK-YS (IL-2 2.5 ng/mL) [21] = assay: as above; conditions: 72 h
# NKL (IL-2 2.5 ng/mL) [22] = assay: as above; conditions: 72 h
# SNK-6 (IL-2 2.5 ng/mL) [23] = assay: as above; conditions: 72 h
# YT (IL-2 2.5 ng/mL) [24] = assay: as above; conditions: 72 h
# [25] = tested on: normal primary NK cells, pool 1 (3 donors) (IL-2 2.5 ng/mL); assay: as above; conditions: 72 h
# [26] = tested on: normal primary NK cells, pool 1 (3 donors), resting (IL-2 0 ng/mL); assay: as above; conditions: 72 h
# [27] = tested on: normal primary NK cells, pool 2 (3 donors) (IL-2 2.5 ng/mL); assay: as above; conditions: 72 h
# [28] = tested on: normal primary NK cells, pool 3 (3 donors) (IL-2 2.5 ng/mL); assay: as above; conditions: 72 h
structure (smiles),measurement,setting,value
COc1cccc2c1C(=O)c1c(O)c3c(c(O)c1C2=O)C[C@@](O)(/C(CO)=N/NC(=O)CCCCCN1C(=O)C=CC1=O)C[C@@H]3O[C@H]1C[C@H](N)[C@H](O)[C@H](C)O1 [Aldoxorubicin] (max concentration tested 1000 nM),percent inhibition of viability,[1]; 0.1 nM,0.3%
same,percent inhibition of viability,[1]; 1 nM,4.21%
same,percent inhibition of viability,[1]; 10 nM,5.36%
same,percent inhibition of viability,[1]; 100 nM,47%
same,percent inhibition of viability,[1]; 1000 nM,101%
same,percent inhibition of viability,DERL-7 (IL-2 2.5 ng/mL) [2]; 0.1 nM,-4.24%
same,percent inhibition of viability,DERL-7 (IL-2 2.5 ng/mL) [2]; 1 nM,-3.44%
same,percent inhibition of viability,DERL-7 (IL-2 2.5 ng/mL) [2]; 10 nM,13.3%
same,percent inhibition of viability,DERL-7 (IL-2 2.5 ng/mL) [2]; 100 nM,87.3%
same,percent inhibition of viability,DERL-7 (IL-2 2.5 ng/mL) [2]; 1000 nM,101%
same,percent inhibition of viability,IMC-1 (IL-2 20 ng/mL) [3]; 0.1 nM,-3.88%
same,percent inhibition of viability,IMC-1 (IL-2 20 ng/mL) [3]; 1 nM,-4.51%
same,percent inhibition of viability,IMC-1 (IL-2 20 ng/mL) [3]; 10 nM,3.18%
same,percent inhibition of viability,IMC-1 (IL-2 20 ng/mL) [3]; 100 nM,86.5%
same,percent inhibition of viability,IMC-1 (IL-2 20 ng/mL) [3]; 1000 nM,101%
same,percent inhibition of viability,KAI3 (IL-2 2.5 ng/mL) [4]; 0.1 nM,-11.1%
same,percent inhibition of viability,KAI3 (IL-2 2.5 ng/mL) [4]; 1 nM,-12.4%
same,percent inhibition of viability,KAI3 (IL-2 2.5 ng/mL) [4]; 10 nM,4.9%
same,percent inhibition of viability,KAI3 (IL-2 2.5 ng/mL) [4]; 100 nM,74.1%
same,percent inhibition of viability,KAI3 (IL-2 2.5 ng/mL) [4]; 1000 nM,87%
same,percent inhibition of viability,KHYG-1 (IL-2 2.5 ng/mL) [5]; 0.1 nM,-0.32%
same,percent inhibition of viability,KHYG-1 (IL-2 2.5 ng/mL) [5]; 1 nM,5.45%
same,percent inhibition of viability,KHYG-1 (IL-2 2.5 ng/mL) [5]; 10 nM,-0.18%
same,percent inhibition of viability,KHYG-1 (IL-2 2.5 ng/mL) [5]; 100 nM,79.9%
same,percent inhibition of viability,KHYG-1 (IL-2 2.5 ng/mL) [5]; 1000 nM,106%
same,percent inhibition of viability,NK-92 (IL-2 2.5 ng/mL) [6]; 0.1 nM,-14.3%
same,percent inhibition of viability,NK-92 (IL-2 2.5 ng/mL) [6]; 1 nM,-7.33%
same,percent inhibition of viability,NK-92 (IL-2 2.5 ng/mL) [6]; 10 nM,-3.29%
same,percent inhibition of viability,NK-92 (IL-2 2.5 ng/mL) [6]; 100 nM,53.2%
same,percent inhibition of viability,NK-92 (IL-2 2.5 ng/mL) [6]; 1000 nM,104%
same,percent inhibition of viability,NK-YS (IL-2 2.5 ng/mL) [7]; 0.1 nM,-4.26%
same,percent inhibition of viability,NK-YS (IL-2 2.5 ng/mL) [7]; 1 nM,-3.37%
same,percent inhibition of viability,NK-YS (IL-2 2.5 ng/mL) [7]; 10 nM,13.9%
same,percent inhibition of viability,NK-YS (IL-2 2.5 ng/mL) [7]; 100 nM,83.1%
same,percent inhibition of viability,NK-YS (IL-2 2.5 ng/mL) [7]; 1000 nM,103%
same,percent inhibition of viability,NKL (IL-2 2.5 ng/mL) [8]; 0.1 nM,-13.6%
same,percent inhibition of viability,NKL (IL-2 2.5 ng/mL) [8]; 1 nM,-5.62%
same,percent inhibition of viability,NKL (IL-2 2.5 ng/mL) [8]; 10 nM,92.1%
same,percent inhibition of viability,NKL (IL-2 2.5 ng/mL) [8]; 100 nM,103%
same,percent inhibition of viability,NKL (IL-2 2.5 ng/mL) [8]; 1000 nM,107%
same,percent inhibition of viability,SNK-6 (IL-2 2.5 ng/mL) [9]; 0.1 nM,7.67%
same,percent inhibition of viability,SNK-6 (IL-2 2.5 ng/mL) [9]; 1 nM,13.7%
same,percent inhibition of viability,SNK-6 (IL-2 2.5 ng/mL) [9]; 10 nM,17.1%
same,percent inhibition of viability,SNK-6 (IL-2 2.5 ng/mL) [9]; 100 nM,91.1%
same,percent inhibition of viability,SNK-6 (IL-2 2.5 ng/mL) [9]; 1000 nM,95.2%
same,percent inhibition of viability,YT (IL-2 2.5 ng/mL) [10]; 0.1 nM,3.75%
same,percent inhibition of viability,YT (IL-2 2.5 ng/mL) [10]; 1 nM,-0.69%
same,percent inhibition of viability,YT (IL-2 2.5 ng/mL) [10]; 10 nM,-3.82%
same,percent inhibition of viability,YT (IL-2 2.5 ng/mL) [10]; 100 nM,70.5%
same,percent inhibition of viability,YT (IL-2 2.5 ng/mL) [10]; 1000 nM,105%
same,percent inhibition of viability,[11]; 0.1 nM,-11.9%
same,percent inhibition of viability,[11]; 1 nM,-3.83%
same,percent inhibition of viability,[11]; 10 nM,-12.3%
same,percent inhibition of viability,[11]; 100 nM,29.5%
same,percent inhibition of viability,[11]; 1000 nM,97.6%
same,percent inhibition of viability,[12]; 0.1 nM,-26%
same,percent inhibition of viability,[12]; 1 nM,-23.3%
same,percent inhibition of viability,[12]; 10 nM,-31.6%
same,percent inhibition of viability,[12]; 100 nM,64.9%
same,percent inhibition of viability,[12]; 1000 nM,91.5%
same,percent inhibition of viability,[13]; 0.1 nM,-13.7%
same,percent inhibition of viability,[13]; 1 nM,-6.33%
same,percent inhibition of viability,[13]; 10 nM,0.42%
same,percent inhibition of viability,[13]; 100 nM,49.2%
same,percent inhibition of viability,[13]; 1000 nM,94.5%
same,percent inhibition of viability,[14]; 0.1 nM,-11.3%
same,percent inhibition of viability,[14]; 1 nM,-10.4%
same,percent inhibition of viability,[14]; 10 nM,0.28%
same,percent inhibition of viability,[14]; 100 nM,31.5%
same,percent inhibition of viability,[14]; 1000 nM,97.1%
same,drug sensitivity score,[15],11.1
same,drug sensitivity score,DERL-7 (IL-2 2.5 ng/mL) [16],17.6
same,drug sensitivity score,IMC-1 (IL-2 20 ng/mL) [17],16
same,drug sensitivity score,KAI3 (IL-2 2.5 ng/mL) [18],14.2
same,drug sensitivity score,KHYG-1 (IL-2 2.5 ng/mL) [19],14.7
same,drug sensitivity score,NK-92 (IL-2 2.5 ng/mL) [20],12
same,drug sensitivity score,NK-YS (IL-2 2.5 ng/mL) [21],17
same,drug sensitivity score,NKL (IL-2 2.5 ng/mL) [22],28.9
same,drug sensitivity score,SNK-6 (IL-2 2.5 ng/mL) [23],18.9
same,drug sensitivity score,YT (IL-2 2.5 ng/mL) [24],13.6
same,drug sensitivity score,[25],9.69
same,drug sensitivity score,[26],12.4
same,drug sensitivity score,[27],11.3
same,drug sensitivity score,[28],9.86
